Assay results reported in patent US20190099404A1, “ANALGESIC COMPOUNDS” (ZENO ROYALTIES & MILESTONES, LLC, priority 2016, published 2019).

Tested on: male ICR mice
Experiment: Formalin Paw Test
Assay type: in vivo
Conditions: 30 mg/kg, intraperitoneal, given 10 minutes before formalin; for Early Phase: early/acute phase (0-10 minutes) after 2% formalin in hind paw; for Late Phase: late/tonic phase (10-35 minutes) after 2% formalin in hind paw
Experimental: One test compound or the vehicle was administered to each mouse in each test group (8 mice per group). Non-fasted male ICR mice weighing 23±3 g were used. Test compounds were administered at a concentration of 30 mg/kg; morphine was administered at a concentration of 10 mg/kg; and acetaminophen was administered at a concentration of >100 mg/kg. The control group received the vehicle (5% DMSO/15% PEG400/10% HPbCD/0.9% Saline). After 10 minutes, a 2% formalin solution (0.02 mL) was injected into one hind paw (sub-plantar) of each mouse. Responses were measured every 5 minutes after the formalin injection for 35 minutes.
The results in Table A are for intraperitoneal administration. In Table A, ‘A’ designates <70 licks/sec, ‘B’ designates ≥70 licks/sec and <165 licks/sec, and ‘C’ designates ≥165 licks/sec.

SMILES: Nc1ccc2[nH]cnc2c1 [Compound 1]
- Early Phase: B (‘B’ designates ≥70 licks/sec and <165 licks/sec)
- Late Phase: C (‘C’ designates ≥165 licks/sec)

SMILES: Cn1ncc2cc(N)ccc21 [Compound 2]
- Early Phase: A (‘A’ designates <70 licks/sec)
- Late Phase: B (‘B’ designates ≥70 licks/sec and <165 licks/sec)

SMILES: NCc1cc2ccccn2n1 [Compound 3]
- Early Phase: A (‘A’ designates <70 licks/sec)
- Late Phase: C (‘C’ designates ≥165 licks/sec)

SMILES: NCc1cc2cc(F)ccc2[nH]1 [Compound 4]
- Early Phase: A (‘A’ designates <70 licks/sec)
- Late Phase: A (‘A’ designates <70 licks/sec)

SMILES: NCc1nc2cc(C(F)(F)F)ccc2s1 [Compound 5]
- Early Phase: A (‘A’ designates <70 licks/sec)
- Late Phase: A (‘A’ designates <70 licks/sec)

SMILES: Nc1nc2ccc(C(F)(F)F)cc2s1 [Compound 6]
- Early Phase: A (‘A’ designates <70 licks/sec)
- Late Phase: A (‘A’ designates <70 licks/sec)

SMILES: NCCc1nc2ccc(F)cc2[nH]1 [Compound 7]
- Early Phase: B (‘B’ designates ≥70 licks/sec and <165 licks/sec)
- Late Phase: A (‘A’ designates <70 licks/sec)

SMILES: NCc1nc2cc(F)ccc2[nH]1 [Compound 9]
- Early Phase: A (‘A’ designates <70 licks/sec)
- Late Phase: A (‘A’ designates <70 licks/sec)

SMILES: CC(C)(C)c1ccc2nc(N)sc2c1 [Compound 10]
- Early Phase: A (‘A’ designates <70 licks/sec)
- Late Phase: A (‘A’ designates <70 licks/sec)

SMILES: NCc1ccc2cncn2c1 [Compound 11]
- Early Phase: B (‘B’ designates ≥70 licks/sec and <165 licks/sec)
- Late Phase: C (‘C’ designates ≥165 licks/sec)
